Assay [1] has as its target T1, Toll-like receptor 7 (Homo sapiens, UniProt Q9NYK1).
T1 sequence (Q9NYK1 whole entry): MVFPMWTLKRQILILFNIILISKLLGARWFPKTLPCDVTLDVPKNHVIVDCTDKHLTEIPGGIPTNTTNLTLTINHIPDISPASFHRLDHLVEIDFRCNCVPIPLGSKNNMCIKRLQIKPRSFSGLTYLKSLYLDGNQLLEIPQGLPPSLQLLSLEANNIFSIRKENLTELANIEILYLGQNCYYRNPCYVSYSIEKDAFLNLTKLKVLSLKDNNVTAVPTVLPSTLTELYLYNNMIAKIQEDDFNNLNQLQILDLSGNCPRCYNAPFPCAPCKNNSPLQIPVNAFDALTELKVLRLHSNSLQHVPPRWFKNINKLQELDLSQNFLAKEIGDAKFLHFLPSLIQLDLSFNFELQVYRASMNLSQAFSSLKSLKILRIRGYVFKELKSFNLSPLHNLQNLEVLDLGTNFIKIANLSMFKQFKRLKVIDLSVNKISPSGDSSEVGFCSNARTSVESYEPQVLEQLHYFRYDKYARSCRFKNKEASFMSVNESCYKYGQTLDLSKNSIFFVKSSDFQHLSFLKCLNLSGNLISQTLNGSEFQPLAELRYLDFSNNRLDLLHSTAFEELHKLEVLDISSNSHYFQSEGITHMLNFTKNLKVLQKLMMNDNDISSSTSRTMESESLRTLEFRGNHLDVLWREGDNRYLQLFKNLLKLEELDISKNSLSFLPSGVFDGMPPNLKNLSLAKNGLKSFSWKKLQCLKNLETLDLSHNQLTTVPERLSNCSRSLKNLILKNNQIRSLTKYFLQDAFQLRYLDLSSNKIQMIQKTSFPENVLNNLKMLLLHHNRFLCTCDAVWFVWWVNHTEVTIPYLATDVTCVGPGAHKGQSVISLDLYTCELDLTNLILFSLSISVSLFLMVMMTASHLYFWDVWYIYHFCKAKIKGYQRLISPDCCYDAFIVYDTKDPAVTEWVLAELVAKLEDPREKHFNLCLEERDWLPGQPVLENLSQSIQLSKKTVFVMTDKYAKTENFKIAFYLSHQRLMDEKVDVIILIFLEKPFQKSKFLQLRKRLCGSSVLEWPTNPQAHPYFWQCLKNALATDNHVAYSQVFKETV
Nature of the assay: Agonist activity at TLR7 expressed in HEK293 cells assessed as increase in NF-kappaB activation at 25 ug/mL by SEAP assay. Type of assay: functional, cell-based.

In assay [2] the target is T1, Toll-like receptor 7.

In ChEMBL document CHEMBL1153973, “Regioisomerism-dependent TLR7 agonism and antagonism in an imidazoquinoline” (Bioorg Med Chem Lett, 2009) one finds IC50 data, which are given here for two compounds.

The term IC50 denotes the concentration needed to halve the response being measured. Regarding `CCNCc1nc2c3ccccc3nc(N)c2n1CC(C)(C)O.O=C(O)C(F)(F)F.O=C(O)C(F)(F)F`, the values for the IC50 entry in assay [1] and in assay [2] were “Not Active” and 25 µM, respectively. In assay [2], `CCNCc1nc2c3ccccc3ncc2n1CC(C)(C)O` yielded an IC50 of 7.5 µM.
